From patent publication US10201556B2, “Combination for use in treating diseases or conditions associated with melanoma, or treating diseases or conditions associated with activated B-raf pathway” (InteRNA Technologies B.V., priority 2012, dated 2019)

Tests used:
[1] = tested on: BRAFV600E mutant melanoma cell lines A2058, RPMI-7951 and M233; test: MTS cell viability after miR-3157 mimic transfection, intrinsically resistant lines; assay type: cell-based; conditions: A2058, RPMI-7951, M233; 10 nM mimic, 72 hours (FIG. 11b)
Description: miR-3157 broadly affects melanoma cell line viability. Melanoma cell lines were divided into those that have the BRAFV600E mutation and are sensitive (a), intrinsically resistant (b) or acquired resistance to vemurafenib (c). Cell lines were transfected in triplicate with control miRNA or miR-3157 mimics (10 nM; n=2). Mock is transfectant only. Cell viability was determined using the MTS assay and calculated relative to mock transfected cells.
A375 cells were obtained from the Hubrecht Institute (Utrecht, The Netherlands); SKMEL-28, A2058 and RPMI-7951 were from the ATCC; SKMEL-57 was a gift from Dr. Patricia Groenen (Radboud University Nijmegen Medical Centre, The Netherlands); for cell line characteristics of M249, M249-AR4, M233 and M376 see (Atefi et al. 2011). A375-R, with in vitro acquired resistance to vemurafenib, was established in our lab by clonal selection of cells continually exposed to 1 μM vemurafenib. A375, A375-R, SKMEL-28, A2058 and SKMEL-57 were grown in DMEM GlutaMAX™-I (Gibco®), all other cell lines in RPMI-1640 (Gibco®). Media was supplemented with 10% FBS (Sigma), and cells were maintained in a humidified 37° C. incubator (Thermo Scientific) with 5% CO2. […]
Cells were seeded in 96-well plates and transfected the next day. […] Read-out was performed at 490 nm on a Multiskan FC plate reader (Thermo Scientific) at 72 hours post transfection.

[2] = tested on: mRNA levels in A375 cells; test: RNA sequencing (transcriptome) of transfected A375 cells; assay type: cell-based, human; conditions: 100 nM mimic
Description: A375 cells were plated in duplo in a 6-well plate at 1.5×10^5 cells/well. The next day, cells were transfected with 100 nM miR-3157 or Negative Control #2 mimics, using 15 μl X-tremeGENE. This procedure (plating and transfection) was repeated three times to generate biological replicates. After 72 hrs, total RNA was isolated using TRI reagent (Sigma-Aldrich) according to the manufacturer's protocol. From 30 μg total RNA, the mRNA was isolated using the MicroPoly(A)Purist kit (Ambion), and the mRNA-ONLY Eukaryotic mRNA Isolation Kit (Epicenter). RNAseq libraries were further prepared using the SOLiD™ Total RNA-Seq Kit (Life Technologies (LT)). Fragmentation of the isolated mRNA was performed by incubation in 20 μl 3 mM MgCl/10 mM Tris pH8, for 15 minutes at 95° C. The fragmented mRNA was incubated with SOLiD™ Adapter mix (LT) in STAR hybridization solution (LT), and incubated for 5 minutes at 65° C. After incubation on ice, adapter ligation was performed according to the STAR protocol (LT). The samples were run on a 10% denaturing polyacrylamide gel, and fragments from 180-300 nucleotides were excised. Reverse transcription and PCR amplification of the libraries was performed according to the STAR protocol, followed by excision of 200 to 300 nucleotide fragments from a 6% native polyacrylamide gel. Sequencing of the fragments was performed on the SOLiD™ System (LT). […]

3′UTR of AURKB = test: 3′UTR Luciferase assay in HeLa cells; assay type: cell-based; conditions: 10 nM mimic, 24 hrs
Description: (§1) The 3′UTR sequences (Table 11) were synthesized by IDT Technologies, and cloned into psiCHECK™-2 (Promega). HeLa cells (5×10^4) were seeded in 24-well plates, and the next day transfected with 100 ng/well 3′UTR psiCHECK™-2 construct and 10 nM miR-3157 mimics, or control miRNA using Lipofectamine 2000 Transfection Reagent (Invitrogen). After 24 hrs cells were lysed using Passive Lysis Buffer and luciferase activity was measured using the Dual-Luciferase Reporter Assay System (Promega) and the Glomax-Multi Detection system (Promega) in a 96-well format according to the manufacturer's protocol. The Renilla luciferase signal was normalized to background Firefly luciferase, and changes in Renilla luciferase activity in the miR-3157 transfected cells calculated relative to the Renilla signal in control mimic transfected cells.

3′UTR of RRM2 = test: 3′UTR Luciferase assay in HeLa cells; assay type: cell-based; conditions: 10 nM mimic, 24 hrs
Description: as §1

[3] = tested on: A375Hu-R1 (vemurafenib resistant clone of A375Hu); test: Anti-proliferative effect of small molecules, MTS assay; assay type: cell-based; conditions: Homo sapiens, A375Hu-R1 (A375-R), in vitro acquired resistance, 72 hours
Description: The anti-proliferative effect of small molecules in melanoma cell lines was determined with V600E BRAF inhibitor, vemurafenib (PLX-4032, 51267, Selleck) and MEK inhibitor, selumetinib (AZD-6244, S1008, Selleck). For each cell line optimal growth conditions were determined prior to the experiment. Cells were plated in a 96-well plate at 3000 cells per well (100 uL) and were grown at 37 C, 5% CO2. Small molecule mix (50 uL per well) was made for each concentration in medium. Cells were treated in triplicate 24 hours after plating. After 72 hours medium was replaced and viability was measured with the MTS assay (Promega) according to manufacturer's instructions. Cell viability inhibition is normalized against loading control (0.1% DMSO) and GraphPad Prism was used to fit the curve and calculate GI50 values.
The A375Hu melanoma cell line was used to make a vemurafenib (PLX-4032) resistant sub line. A375Hu cells were plated at low density in 96-well plates and exposed to 1 uM PLX-4032. Cell growth was monitored until clonal growth was observed. Wells with clonal growth (approximately 5%) were replated in a 96-well plate and exposed to 1 uM PLX-4032. The 10 best growing clones were replated in 6-well plates in 1 uM PLX-4032 and the three best growing clones were used for further culturing. Clone number 1 (A375Hu-R1) grew best with 1 uM PLX-4032 and was chosen for additional experiments.

Compound | cell viability relative to mock transfected cells [1] | decrease of mRNA levels of CDK4, BCL2 and BIRC5 in the RNAseq analysis ([2]; 72 hrs) [%] | predicted targets with reduced mRNA levels ([2]; change at least 60%, p<10^-5, in silico target prediction) [genes] | luciferase activity, AURKB 3′UTR with mutated miR-3157 binding site (3′UTR of AURKB) | luciferase activity, AURKB 3′UTR unmodified (3′UTR of AURKB; relative to control mimic) | luciferase activity, RRM2 3′UTR with mutated miR-3157 binding site (3′UTR of RRM2) | luciferase activity, RRM2 3′UTR unmodified (3′UTR of RRM2; relative to control mimic) | GI50 [3] [µM]
hsa-miR-3157-5p: mature miRNA mimic, SEQ ID NO 6 UUCAGCCAGGCUAGUGCAGUCU (listed as RNA, chemistry not given here) | viability was reduced | 60 | 145 | remained unaffected | reduced luciferase activity | remained unaffected | reduced luciferase activity | 
CCCS(=O)(=O)Nc1ccc(F)c(C(=O)c2c[nH]c3ncc(-c4ccc(Cl)cc4)cc23)c1F [Vemurafenib, N-(3-{[5-(4-chlorophenyl)-1H-pyrrolo[2,3-b]pyridin-3-yl]carbonyl}-2,4-difluorophenyl)propane-1-sulfonamide] |  |  |  |  |  |  |  | > 10
